Data published in patent publication US20260355318A1, “MOLECULAR MACHINES FOR TREATMENT OF CANCER, FUNGAL INFECTIONS, OR BACTERIAL INFECTIONS” (priority 2022, published 2026).

How the values were obtained:
C. albicans = test: Lipid peroxidation (TBARS, MDA); assay type: cell-based, Candida albicans; details: 2×MIC
Protocol: (§1) Superoxide dismutase (SOD) activity was determined using a Superoxide Dismutase Assay Kit (Caymanchem, MI, USA) per the distributor's instructions. Lipid peroxidation was determined using a TBARS assay kit (TCA method) (Caymanchem, MI, USA) per the distributor's instructions. SOD activity and MDA levels were normalized by protein content determined by the Pierce assay (Pierce™ BCA Protein Assay Kit, Thermo Fisher Scientific, MA, USA).

superoxide dismutase = test: Superoxide dismutase (SOD) activity; assay type: cell-based, Candida albicans; details: 0.5×MIC, p<0.05
Protocol: as §1

HEK293T cells = test: Toxicity to HEK293T cells (CellTiter-Glo) and therapeutic index; assay type: cell-based, human; details: ratio between IC50 (HEK293T) and MIC
Protocol: The toxicity of visible-light-activated MMs to mammalian cells was investigated in human embryonic kidney cells (HEK293T) treated with increasing MM concentrations and 87.6 J cm^−2 of 405-nm light. […] The MM concentration that reduced viability by 50% (IC50), calculated from dose-response curves (FIG. 16C), ranged from 1.61-6.02 µM (FIG. 16D). The IC50 and MIC were used to calculate the therapeutic index. With a therapeutic index ≥1 (FIG. 16D), MM 1 was used for in vivo and ex vivo studies.
The biocompatibility of MMs with […] HEK293T cells was assessed using the CellTiter-Glo® Luminescent Cell Viability Assay (Promega, WI, USA) per the manufacturer's instructions by treating cells with increasing concentrations of different MMs plus 405-nm light (87.6 J cm^−2). Dose-response curves were used to determine the MM concentrations that reduced cell viability by 50% (IC50). The therapeutic index was calculated as the ratio between the IC50 and the MIC.

E. coli [1] = test: Extracellular ATP, E. coli; assay type: cell-based, Escherichia coli; details: 1×MIC
Protocol: Intracellular content leakage following treatment with MMs was determined by quantifying extracellular ATP (O'Neill et al, 2004). Following irradiation in the presence of different concentrations of MM 1, MM 5, and MM 6, or 1% DMSO, E. coli cells were centrifuged at 13,000 g for 5 min. Supernatants were recovered and stored at −20 ° C for ATP analysis. ATP analysis was conducted using the luminescence-based BacTiter-Glo™ assay (Promega) per the manufacturer's instructions. Nisin was used as a positive control. The levels of ATP in supernatants were derived via a standard curve of ATP standards from 1 nM to 1 μM. Luminescence measurements of ATP standards and culture supernatants were measured in triplicate on a microplate reader (BioTek Instruments Inc, Winooski, VT, USA). Results were expressed as relative light units (RLU) corrected for […] in the absence of cells.

[2] = Photodegradation of MMs by 1H NMR; assay type: physicochemical; details: 5 min, 146 mW cm^−2 405 nm, DMSO-d6
Protocol: Aromatic region of ^1H NMR (600 MHz) spectra of MM 1 (300 mM in DMSO-d6) before and after irradiation for 5 min with 146 mW cm^−2 of 405 nm light.

E. coli [3] = test: Antibacterial activity of pre-irradiated MM 1; assay type: cell-based, Escherichia coli; details: pre-irradiation 25 min
Protocol: Influence of MM pre-irradiation on the inactivation of E. coli. Top: (1) To test the influence of pre-irradiating MMs on their antibacterial effects, MM 1 was added to a Petri dish containing PBS (final concentration of 8 μM) and irradiated for 25 min at 146 mW cm^−2 with 405 nm light. Cells were then added to an OD of ≈0.02, incubated in the dark for 30 min and then irradiated for up to 10 min at 146 mW cm^−2 with 405 nm light; (2) Independently, MM 1 was added to a Petri dish containing PBS (final concentration of […]), cells were then added to an OD600 of ≈0.02, incubated in the dark for 30 min and then irradiated for up to 10 min at 146 mW cm^−2 with 405 nm light. Bottom: Time-dependent reduction in colony-forming units (expressed as the logarithm of the ratio between the cell number at every time point and the cell number at time zero) of cells treated with pre-irradiated MM 1 or non-irradiated MM 1.

For `C[C@@H]1Cc2ccc3ccccc3c2/C1=C1\c2ccccc2Sc2cc(NCCN)ccc21` (racemic) [MM 6, N^1-(9-(2-methyl-2,3-dihydro-1H-cyclopenta[a]naphthalen-1-ylidene)-9H-thioxanthen-3-yl)ethane-1,2-diamine], the “lipid peroxidation product levels” value (C. albicans) was “increased levels of the lipid peroxidation product malonaldehyde”.
In the case of `C[C@@H]1Cc2ccc3ccccc3c2/C1=C1\c2ccccc2Sc2cc(NCCN(C)C)ccc21` [MM 1, N^1N^1-dimethyl-N^2-(9-(2-methyl-2,3-dihydro-1H-cyclopenta[a]naphthalen-1-ylidene)-9H-thioxanthen-3-yl) ethane-1,2-diamine], the superoxide dismutase activity (superoxide dismutase) is reported as “increased superoxide dismutase activity”, the therapeutic index (HEK293T cells) is reported as no less than 1 and the “extracellular levels of ATP” value (E. coli [1]) is reported as “up to 1.2×10^−7 moles”. For the same compound, the photodegradation [2] was “does not cause detectable photodegradation of MMs” and the “antibacterial activity after pre-irradiation” value (E. coli [3]) was “does not lead to loss of MM antibacterial activity”.
